Experimental data from patent US20220283177A1, “METHOD FOR DETECTING INTERACTION AND AFFINITY BETWEEN LIGAND AND PROTEIN” (DALIAN INSTITUTE OF CHEMICAL PHYSICS, CHINESE ACADEMY OF …, priority 2019, published 2022).
pEC50: −log10 of the molar value.

Legend:
[1] = target: T1, CDK9 (Homo sapiens, UniProt P50750); assay: CA-based SIP, western blotting, SNS-032; assay type: binding; conditions: 100 μM SNS-032, 293T cell lysate, CA gradient
Text: The procedure of western blotting was as same as Sample 1.

[2] = target: T1, CDK9; assay: Solvent mixture (A.E.A.)-based SIP, western blotting, SNS-032; conditions: 100 μM SNS-032, 293T cell lysate, high percentage of A.E.A.
Text: (§1) One portion of the supernatants was used for western blotting analysis and the left portion was used for MS-based quantification.

[3] = target: GSK-3a (Homo sapiens, UniProt P49840); assay: Solvent mixture (A.E.A.)-based SIP, quantitative proteomics, SNS-032; conditions: 100 μM SNS-032, 293T cell lysate, 13% A.E.A. (FIG. 2F)
Text: as §1

[4] = withdrawn from clinical trials; cited from earlier work
[5] = target: NDUFV1 (Homo sapiens, UniProt P49821); assay: Affinity evaluation by solvent mixture-based SIP dose response (western blotting)
Chain of NDUFV1 (P49821 21-464): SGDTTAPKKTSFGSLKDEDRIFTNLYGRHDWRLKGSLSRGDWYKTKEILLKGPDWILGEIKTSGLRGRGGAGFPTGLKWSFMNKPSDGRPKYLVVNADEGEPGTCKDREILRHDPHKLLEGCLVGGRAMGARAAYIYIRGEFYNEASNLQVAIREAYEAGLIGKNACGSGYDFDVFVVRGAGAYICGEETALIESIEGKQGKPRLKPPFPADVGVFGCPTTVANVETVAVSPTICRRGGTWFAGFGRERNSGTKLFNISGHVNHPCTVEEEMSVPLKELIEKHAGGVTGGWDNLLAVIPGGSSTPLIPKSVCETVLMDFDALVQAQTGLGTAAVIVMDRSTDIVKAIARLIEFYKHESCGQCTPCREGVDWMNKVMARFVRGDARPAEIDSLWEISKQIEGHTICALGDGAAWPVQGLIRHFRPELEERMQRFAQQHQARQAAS
Text: The calculation equation: Y=min+(max−min)/(1+10^((Log EC50−X)*Hill Slope)), Y is the protein abundance, X is the different drug concentrations, min and max are the minimum and maximum values of the corresponding protein abundance on the Y axis, respectively. Hill Slope is the absolute value of the maximum slope of the curve (i.e., the midpoint of the curve).

T1 sequence (P50750 whole entry): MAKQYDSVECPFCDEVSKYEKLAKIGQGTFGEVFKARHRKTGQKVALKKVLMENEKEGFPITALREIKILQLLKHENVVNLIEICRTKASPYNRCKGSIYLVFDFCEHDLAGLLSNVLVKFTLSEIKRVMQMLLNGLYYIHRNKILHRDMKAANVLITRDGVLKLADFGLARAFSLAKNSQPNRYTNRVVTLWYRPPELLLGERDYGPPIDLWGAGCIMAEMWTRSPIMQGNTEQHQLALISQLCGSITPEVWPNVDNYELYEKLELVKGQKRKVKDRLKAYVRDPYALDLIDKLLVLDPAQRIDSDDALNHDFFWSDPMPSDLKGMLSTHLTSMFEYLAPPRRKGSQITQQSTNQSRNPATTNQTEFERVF
T1 sequence (O60563 whole entry partner): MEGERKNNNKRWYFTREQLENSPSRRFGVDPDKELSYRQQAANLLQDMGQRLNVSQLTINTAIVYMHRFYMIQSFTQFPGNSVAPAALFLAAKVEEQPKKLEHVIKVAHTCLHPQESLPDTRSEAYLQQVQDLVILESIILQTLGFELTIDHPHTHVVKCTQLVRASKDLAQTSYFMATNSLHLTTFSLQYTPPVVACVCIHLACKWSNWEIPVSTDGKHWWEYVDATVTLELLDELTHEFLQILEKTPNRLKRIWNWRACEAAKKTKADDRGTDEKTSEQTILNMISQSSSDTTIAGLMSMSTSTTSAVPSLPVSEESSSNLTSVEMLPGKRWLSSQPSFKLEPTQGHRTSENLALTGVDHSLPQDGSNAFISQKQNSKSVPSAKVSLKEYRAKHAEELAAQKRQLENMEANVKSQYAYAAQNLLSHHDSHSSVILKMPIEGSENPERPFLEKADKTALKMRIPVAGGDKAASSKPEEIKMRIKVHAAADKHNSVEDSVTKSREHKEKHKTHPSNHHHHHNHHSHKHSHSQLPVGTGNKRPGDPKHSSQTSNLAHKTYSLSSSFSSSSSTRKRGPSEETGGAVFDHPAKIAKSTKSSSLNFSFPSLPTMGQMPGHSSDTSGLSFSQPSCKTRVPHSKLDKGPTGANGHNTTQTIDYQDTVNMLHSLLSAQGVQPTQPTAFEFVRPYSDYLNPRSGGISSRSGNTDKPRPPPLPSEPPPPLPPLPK
Chain of GSK-3a (P49840 whole entry): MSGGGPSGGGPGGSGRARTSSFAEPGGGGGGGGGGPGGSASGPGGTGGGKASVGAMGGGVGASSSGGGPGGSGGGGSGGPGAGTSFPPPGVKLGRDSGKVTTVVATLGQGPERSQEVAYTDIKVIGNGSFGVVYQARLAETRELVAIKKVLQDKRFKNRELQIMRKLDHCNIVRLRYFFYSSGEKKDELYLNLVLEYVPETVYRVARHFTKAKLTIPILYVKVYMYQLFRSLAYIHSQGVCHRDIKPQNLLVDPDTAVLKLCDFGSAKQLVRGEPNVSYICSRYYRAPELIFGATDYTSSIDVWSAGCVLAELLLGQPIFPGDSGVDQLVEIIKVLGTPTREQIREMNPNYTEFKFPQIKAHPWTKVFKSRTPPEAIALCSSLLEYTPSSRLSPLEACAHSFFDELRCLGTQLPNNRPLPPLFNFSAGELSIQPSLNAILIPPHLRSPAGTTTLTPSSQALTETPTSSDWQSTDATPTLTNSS

With `CC(C)(C)c1cnc(CSc2cnc(NC(=O)C3CCNCC3)s2)o1` [SNS-032] the “abundance of CDK9 by western blotting” value [1] was “higher as compared with that in the control group”, the “stabilization of CDK9 by western blotting” value [2] was “significant stabilization shifts” and the “average log 2 FC (H/L normalization ratio) of GSK-3a” value [3] was 1.13.

For `COC1=C2C[C@@H](C)C[C@H](OC)[C@H](O)[C@@H](C)/C=C(\C)[C@H](OC(N)=O)[C@@H](OC)/C=C\C=C(/C)C(=O)NC(=CC1=O)C2=O` [geldanamycin], the “side effects in clinical trials” value [4] is given as “severe hepatotoxicity” and the pEC50 [5] is given as 4.00 to 5.00.
